Results from patent publication US11517555B2, “Solid soluble ferric pyrophosphate formulations, kits, and methods using the same” (ROCKWELL MEDICAL, INC., priority 2015, dated 2022).
Several values for one entry are separate records, joined by “and”; a condition that tells them apart may be missing. Identical values can stand only once.

Assays:
[1] = healthy volunteers, 2.5-10 mg iv over 4 hours, 15 and 20 mg iv over 12 hours
[2] = From the text: The angle of repose is related to resistance to movement between particles (interparticulate friction) and is the constant, three-dimensional angle relative to the horizontal base assumed by a cone-shaped pile of powder. In a typical assay, a symmetrical cone-shaped pile of powder is built by passing a solid particulate formulation through a funnel onto a vibration-free fixed base. The height of the funnel is maintained approximately 2 cm to 4 cm above the pile to minimize the effect of falling particles on the top of the pile. The angle of repose can then be determined by measuring the height and radius of the cone and calculating the angle of repose from the following equation: angle of repose=tan^−1(height/radius).
Remark: listed apart in the source
[3] = target: apotransferrin and monoferric transferrin (Homo sapiens, UniProt P02787)
Sequence of apotransferrin and monoferric transferrin (P02787 20-698): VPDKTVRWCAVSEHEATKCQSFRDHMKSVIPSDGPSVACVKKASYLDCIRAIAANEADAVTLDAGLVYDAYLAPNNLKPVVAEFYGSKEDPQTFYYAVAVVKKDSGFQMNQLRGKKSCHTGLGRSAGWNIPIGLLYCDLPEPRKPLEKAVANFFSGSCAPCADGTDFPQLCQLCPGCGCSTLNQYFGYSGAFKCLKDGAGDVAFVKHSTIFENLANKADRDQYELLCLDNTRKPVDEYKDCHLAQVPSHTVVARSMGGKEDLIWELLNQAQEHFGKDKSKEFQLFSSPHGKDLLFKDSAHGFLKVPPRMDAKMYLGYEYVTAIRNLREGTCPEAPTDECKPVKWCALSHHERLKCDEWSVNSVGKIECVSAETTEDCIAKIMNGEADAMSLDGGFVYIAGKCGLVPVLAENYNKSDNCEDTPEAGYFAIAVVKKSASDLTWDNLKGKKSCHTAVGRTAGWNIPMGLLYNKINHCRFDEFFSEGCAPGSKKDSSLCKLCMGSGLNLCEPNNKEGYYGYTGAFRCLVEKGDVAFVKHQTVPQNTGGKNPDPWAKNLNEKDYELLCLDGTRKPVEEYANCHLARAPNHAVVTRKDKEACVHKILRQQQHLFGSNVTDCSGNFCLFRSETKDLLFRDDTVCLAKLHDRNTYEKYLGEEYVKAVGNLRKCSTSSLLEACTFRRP

[4] = aqueous solution
[5] = Cilas 1180LD laser diffraction, liquid dispersion in mineral oil, replicates 1-3, citrate

Q: For `O=C([O-])CC(O)(CC(=O)[O-])C(=O)[O-].O=P(O)(O)OP(=O)(O)O.[Fe+3]` [SFP, Ferric pyrophosphate citrate], which “AUC of baseline-corrected serum iron” value [1] is on record?
A: increased in a dose proportional manner

Q: What about the “Cmax of baseline-corrected serum iron” value [1] of the same molecule?
A: increased in a dose proportional manner

Q: And the “Angle of Response, Average” value ([2]; average of 3 replicate measurements)?
A: 41.5 °

Q: And the “Angle of Response” value ([2]; single replicate measurements 1-3, citrate)?
A: 42.3 ° and 41.4 ° and 40.9 °

Q: And the D10 [5]?
A: 3.57 μm and 3.63 μm and 3.68 μm

Q: What about the D50 [5] of the same molecule?
A: 12.73 μm and 12.66 μm and 12.58 μm

Q: What about the D90 [5] of the same molecule?
A: 41.08 μm and 40.18 μm and 39.23 μm

Q: And the primary particle size (light microscopy, dry powder and mineral oil dispersions)?
A: > 5 μm

Q: What about the Pharmacologic action [3] of the same molecule?
A: Binds directly to apotransferrin and

Q: And the “Fe(III)-ligand binding” value [4]?
A: Covalent and stable in aqueous
